Experimental data taken from PMC4872661 (Journal of molecular recognition : JMR, 2011).

Target: DAFP-1
Test: Hummel-Dreyer size-exclusion HPLC, Klotz plot
Type: binding, Dendroides canadensis
Settings: 0.10 M Na2SO4, 0.05% NaN3, 0.10 M NaPi, pH 7.00, ambient temperature; 1:1 stoichiometry

## NC(=O)C1=CN([C@@H]2O[C@H](COP(=O)(O)OP(=O)(O)OC[C@H]3O[C@@H](n4cnc5c(N)ncnc54)[C@H](O)[C@@H]3O)[C@@H](O)[C@H]2O)C=CC1 [NADH, β-nicotinamide adenine dinucleotide, reduced]
  Kd: 280 ± 20 nM
